Values of other authors in US20190250088A1, “Methods and Apparatus for Predicting and Confirming Drug-Induced Thrombocytopenia Through Particle Detection with Dynamic Light Scattering” (LightIntegra Technology Inc., priority 2018, published 2019).

Conditions: patients recently exposed to heparin; background statement

| Substance | HIT occurs in patients receiving the drug (incidence of heparin-induced thrombocytopenia) |
| --- | --- |
| unfractionated heparin [unfractionated heparin (UFH)] | up to 5% |
| low molecular weight heparin [low molecular weight heparin (LMWH)] | < 1% |
